# Data taken from article PMC4304288, “Function through bio-inspired, synthesis-informed design: step-economical syntheses of designed kinase inhibitors” (Organic Chemistry Frontiers, 2014).
# pIC50: −log10 of the molar value.
# System: PKC (rat brain mixture)
# Test: PKC inhibition assay (protocol of Kikkawa, [γ-32P]ATP, histone)
# Format: biochemical
# Details: rat brain mixture of PKC isoforms
# Method: Our initial analogs were tested for inhibition of PKC[37],[38] (rat brain mixture) due to its clinical significance and our on-going and complementary work on PKC activators.[7b],[16],[26]
# Simplified analog 19 was tested in the PKC inhibition assay using the rat brain mixture of PKC isoforms. […]. Computational docking[42] of the energy-minimized conformer of 19 in the computer-simulated ATP-binding pocket of PKCα (Fig. 3) illustrates the conserved hydrogen bonds between the maleimide and hinge region residues and the shape complementarity of the ligand with the pocket.
# A PKC inhibition assay was performed following the protocol developed by Kikkawa and coworkers.5 The assay can be scaled as desired. Histone solution (0.33 mg/mL in 20 mM Tris buffer) was prepared from a stock solution (33 mg/mL, stored frozen). Phosphatidylserine (PS) vesicles were prepared by the addition of PS (10 mg/mL in chloroform, 240 µL) and dioleoylglycerol (10 mg/mL in ethanol, 40 µL) to a glass vial followed by removal of the chloroform under a stream of nitrogen. To the neat PS was added chilled 20 mM Tris assay buffer (2 mL) and the resulting mixture was sonicated (Branson Sonifier 250, power = 3, 30% duty cycle) four times for 30 sec with a 30 sec interval between sonications. The resulting milky suspension was stored on ice. "Stop" solution refers to a solution of 200 mM EDTA and 200 mM ATP in 20 mM Tris buffer.
# Whatman filter papers were cut in 1 x 1 inches in dimension and labeled with tube number in pencil. An "Autogo" solution was prepared by mixing 27 µL of 3.75 mM ATP (in 20 mM Tris), 100 µL of 1.0 M MgCl2, 872 µL of 20 mM Tris buffer, and 1.3 µL of [γ-32P] ATP (total volume is 1 mL). "Autogo" solution should be kept in the hot hood all the time. "Cocktail 1" was prepared by mixing 70 µL of 10 mM Ca2+, 350 µL of 20 mM Tris, and 70 µL of histone solution (0.33 mg/mL in 20mM Tris). "Cocktail 2" was prepared by mixing 310 µL of 10 mM Ca2+, 930 µL of 20 mM Tris, 310 µL of the histone solution, and 310 µL of the PS solution (added only once the assay is ready to be run).
# To each eppendorf tube, 10 µL of PKC solution and10 µL of the inhibitor solution were added. After addition of the inhibitor, each tube was vortexed. For negative controls, 70 µL of cocktail 1 was added to tubes 1 and 2. To the rest of the tubes were added 60 µL of cocktail 2. All the tubes were then transferred to the hot hood, and 20 µL of "Autogo" solution was added to each tube and vortexed immediately. A start countdown of 7 min was initiated when "Autogo" was added to the first tube. Addition to all the tubes should be completed within 7 min. When the countdown is over, "Stop" solution was added to each tube and vortexed. The interval between the addition of "Autogo" and "Stop" solution should be 7 min for each tube.
# Contents of each tube was transferred to the piece of pre-labeled Whatman filter paper and the paper was washed by soaking them and swirling in a beaker filled with 300 mL of tap water. Once all the filter papers are soaked in the beaker, the supernatant was carefully drained (to the hot hood drain) and the papers were rinsed by soaking them in 300 mL of fresh tap water for 2 min. The water was decanted, and the papers were rinsed by soaking them in 300 mL of ethanol for 2 min. The ethanol should be recovered to a bottle in the hot hood (not to the drain). The papers were dried in the hot hood and each paper was transferred to a scintillation vial. The radiation was measured with the scintillation counter (Beckman LS 6000SC). The data set was analyzed using a least-square data-fitting algorithm in Prism 4 (Graphpad Software Inc.) to give an IC50 value (defined as the concentration of analogue required to inhibit 50% of PKC activity).
row,SMILES,pIC50
1,NCCCn1c2ccc(Cl)cc2c2c3c(c4c(c21)CCC(O)CC4)C(=O)NC3=O (centres unmarked) [Compound 10],5.59
2,NCCCn1c2ccc(Cl)cc2c2c3c(c4c(c21)CCC(N)CC4)C(=O)NC3=O (centres unmarked) [Compound 11],4.90
3,CNC1CCc2c3c(c4c5cc(Cl)ccc5n(CCCN)c4c2CC1)C(=O)NC3=O (centres unmarked) [Compound 12],4.85
4,CN(C)C1CCc2c3c(c4c5cc(Cl)ccc5n(CCCN)c4c2CC1)C(=O)NC3=O (centres unmarked) [Compound 13],5.54
5,CN(C)C1CCc2c3c(c4c5ccccc5n(CCCN)c4c2CC1)C(=O)NC3=O (centres unmarked) [Compound 14],5.80
6,CN(C)C1CCc2c(CC3CCNCC3)cc3c(c2CC1)C(=O)NC3=O (centres unmarked) [Compound 19],7.89

# System: PKCβ
# Test: not given
# Details: cited from earlier work
row,SMILES,selectivity for PKCβ over PKCα
1,Cn1cc(C2=C(c3cn(C4CCN(Cc5ccccn5)CC4)c4ccccc34)C(=O)NC2=O)c2ccccc21 [enzastaurin],26 fold
2,CN(C)C[C@@H]1CCn2cc(c3ccccc32)C2=C(C(=O)NC2=O)c2cn(c3ccccc23)CCO1 [ruboxistaurin],60 fold
